Measurements reported in ChEMBL document CHEMBL2203282, “1,4-naphthoquinone cations as antiplasmodial agents: hydroxy-, acyloxy-, and alkoxy-substituted analogues” (ACS Med Chem Lett, 2012).

The compounds below were run on Plasmodium falciparum (assay: Antiplasmodial activity against chloroquine-resistant Plasmodium falciparum W2 infected in human erythrocytes assessed as reduction in parasitemia after 48 hrs by flow cytometry analysis). Details: W2, 48 h.
Type: functional, organism-based
In the case of CC1=C(OCCCCCCCCCC[P+](c2ccccc2)(c2ccccc2)c2ccccc2)C(=O)c2ccccc2C1=O, the IC50 is reported as 119 nM. Compound O=C1C(Cc2ccccc2)=C(OCCCCCC[P+](c2ccccc2)(c2ccccc2)c2ccccc2)C(=O)c2ccccc21 has an IC50 of 49.1 nM. With CCCCCCCCCCC1=C(C)C(=O)c2ccccc2C1=O the IC50 was > 10000 nM. For O=C1C(O)=C(c2ccc(OCCC[P+](c3ccccc3)(c3ccccc3)c3ccccc3)cc2)C(=O)c2ccccc21, the IC50 was 6730 nM. O=C1C(OCCC[P+](c2ccccc2)(c2ccccc2)c2ccccc2)=C(C2CCCCC2)C(=O)c2ccccc21 was tested, and the IC50 was 42.3 nM. Work on C[C@@H]1CC[C@H]2[C@@H](C)C(=O)O[C@@H]3O[C@@]4(C)CC[C@@H]1[C@]32OO4 [ARTEMISININ] yielded an IC50 of 18.1 nM. Compound O=C1C(O)=C(CCCCCCCCCC[P+](Cc2ccccc2)(Cc2ccccc2)Cc2ccccc2)C(=O)c2ccccc21 has an IC50 of 3280 nM. With O=C1C=C(OCCCCCC[P+](c2ccccc2)(c2ccccc2)c2ccccc2)C(=O)c2ccccc21 the IC50 was 28.5 nM. O=C1C=C(OCCC[P+](c2ccccc2)(c2ccccc2)c2ccccc2)C(=O)c2ccccc21 was tested, and the IC50 was 40 nM. Work on O=C1C(O)=C([C@H]2CC[C@H](c3ccc(Cl)cc3)CC2)C(=O)c2ccccc21 [ATOVAQUONE] yielded an IC50 of 0.5 nM. Work on CC(=O)OC1=C(c2ccc(OCCCC[P+](c3ccccc3)(c3ccccc3)c3ccccc3)cc2)C(=O)c2ccccc2C1=O yielded an IC50 of 5440 nM. Compound CC(=O)OC1=C(c2ccc(OCCCCCCCCCC[P+](c3ccccc3)(c3ccccc3)c3ccccc3)cc2)C(=O)c2ccccc2C1=O has an IC50 of 7120 nM. Compound CC1=C(OCCC[P+](c2ccccc2)(c2ccccc2)c2ccccc2)C(=O)c2ccccc2C1=O has an IC50 of 41.9 nM. CC(=O)OC1=C(CCCCCCCCCC[P+](c2ccccc2)(c2ccccc2)c2ccccc2)C(=O)c2ccccc2C1=O gave an IC50 of 3590 nM. With CCCCCCCCCCC1=C(O)C(=O)c2ccccc2C1=O the IC50 was 339 nM. Work on O=C1C(O)=C(CCCCC[P+](c2ccccc2)(c2ccccc2)c2ccccc2)C(=O)c2ccccc21 yielded an IC50 of 4080 nM. CC1=C(OC(=O)CCCCCCCCCC[P+](c2ccccc2)(c2ccccc2)c2ccccc2)C(=O)c2ccccc2C1=O showed an IC50 of 1380 nM. Work on CC1=C(OCCCCCC[P+](c2ccccc2)(c2ccccc2)c2ccccc2)C(=O)c2ccccc2C1=O yielded an IC50 of 42.7 nM. CC1=C(OCCC[n+]2ccccc2)C(=O)c2ccccc2C1=O showed an IC50 of 167 nM. In the case of CC1=C(OCCC[n+]2ccn(C)c2)C(=O)c2ccccc2C1=O, the IC50 is reported as 165 nM. O=C1C(Cc2ccccc2)=C(OCCC[P+](c2ccccc2)(c2ccccc2)c2ccccc2)C(=O)c2ccccc21 showed an IC50 of 46.7 nM. In the case of CCCCCCCCCCC1=C(OC(C)=O)C(=O)c2ccccc2C1=O, the IC50 is reported as 392 nM. CCCC[P+](CCCC)(CCCC)CCCCCCCCCCC1=C(O)C(=O)c2ccccc2C1=O gave an IC50 of 3860 nM. In the case of O=C1C(Cc2ccc(Cl)cc2)=C(OCCCCCC[P+](c2ccccc2)(c2ccccc2)c2ccccc2)C(=O)c2ccccc21, the IC50 is reported as 49.5 nM. Compound COc1ccc(C2=C(OCCC[P+](c3ccccc3)(c3ccccc3)c3ccccc3)C(=O)c3ccccc3C2=O)cc1 has an IC50 of 17.4 nM. Compound CC1=C(OCC(=O)OCCC[P+](c2ccccc2)(c2ccccc2)c2ccccc2)C(=O)c2ccccc2C1=O has an IC50 of 1230 nM. O=C1C(O)=C(CCCCCCCCCC[P+](c2ccccc2)(c2ccccc2)c2ccccc2)C(=O)c2ccccc21 gave an IC50 of 2180 nM. For CC(=O)OC1=C(CCCCC[P+](c2ccccc2)(c2ccccc2)c2ccccc2)C(=O)c2ccccc2C1=O, the IC50 was 1900 nM. For O=C1C(OCCCCCC[P+](c2ccccc2)(c2ccccc2)c2ccccc2)=C(C2CCCCC2)C(=O)c2ccccc21, the IC50 was 47.9 nM. For CC1=C(OC(=O)CCC[P+](c2ccccc2)(c2ccccc2)c2ccccc2)C(=O)c2ccccc2C1=O, the IC50 was 4600 nM. In the case of O=C1C(O)=C(c2ccc(OCCCCCCCCCC[P+](c3ccccc3)(c3ccccc3)c3ccccc3)cc2)C(=O)c2ccccc21, the IC50 is reported as 6640 nM.
